Key:
[1] = target: GAL4 DBD (1-147)-CfEcR(DEF)/VP16AD-βRXREF-LmUSPEF (Choristoneura fumiferana, UniProt O77240); assay: cell-based; conditions: for Fold Induction, 27-63 Assay, 3.3 uM: 3.3 uM ligand; for Fold Induction, 27-63 Assay, 3.3 uM / Fold Induction, 27-63 Assay, 33 uM: RLU ligand treated / RLU DMSO treated cells; for Fold Induction, 27-63 Assay, 3.3 uM / Fold Induction, 27-63 Assay, 33 uM / EC50: average of two wells; for Fold Induction, 27-63 Assay, 33 uM: 33 uM ligand; for 27-63 assay Rel Max FI: maximum fold induction at any concentration relative to that of GS-E ligand, CHO 27-63 cells; for EC50: read-out: 27-63 assay EC50, CHO 27-63 stable cell line, luciferase reporter
[2] = system: mutated ecdysone receptor-based gene switch; assay: In vivo SEAP induction, ligand by IP injection; design: species or system C57BL/6 mouse; conditions: mouse serum
In short: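 Gene switch plasmids (receptor under CMV promoter) electroporated into quadriceps of C57BL/6 mice; 3 days later ligand given IP at 2.6 μmol or 26 nmol in 50 μL DMSO per mouse. Serum SEAP measured by chemiluminescence 2-11 days after dosing, averaged over four animals, expressed as % of GS™-E ligand induction.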

SMILES | Fold Induction, 27-63 Assay, 3.3 uM [1] | Fold Induction, 27-63 Assay, 33 uM [1] | 27-63 assay Rel Max FI [1] | EC50 [1] [nM] | Secreted Alkaline Phosphatase (percentage of GS ™-E ligand induction) Day 2 ([2]; IP 2.6 μmol ligand 3 days after electroporation, day 2 after ligand) | Secreted Alkaline Phosphatase (percentage of GS ™-E ligand induction) Day 3 ([2]; IP 2.6 μmol ligand, day 3 after ligand) | Secreted Alkaline Phosphatase (percentage of GS ™-E ligand induction) Day 11 ([2]; IP 2.6 μmol ligand, day 11 after ligand)
COc1cc(C)ccc1C(=O)N(NC(=O)c1cccc(OC)c1C)C(C)(C)C [RG-100769] | 1595 | 1556 | 0.735 | 196 | – | – | –
CCc1c(C(=O)NN(C(=O)c2cccc(C)c2)C(C)(C)C)ccc2c1OCCO2 [RG-101036] | 1721 | 1459 | 0.724 | 177 | – | – | –
CCc1ccc(C(=O)NN(C(=O)c2ccccc2[N+](=O)[O-])C(C)(C)C)cc1 [RG-101013] | 927 | 988 | 0.606 | 2140 | – | – | –
CCc1ccc(C(=O)NN(C(=O)c2cc(C)cc(C)c2)C(C)C(C)(C)C)cc1 (centres unmarked) [RG-103451] | 3326 | 3865 | 0.884 | 314 | 76 percentage of GS ™-E ligand induction | 73 percentage of GS ™-E ligand induction | 371 percentage of GS ™-E ligand induction
COc1cccc(C(=O)NN(C(=O)c2ccc(Cl)cc2F)C(C)(C)C)c1C [RG-100929] | 1080 | 988 | 0.770 | 1050 | – | – | –
Cc1cc(C)cc(C(=O)N(NC(=O)c2ccc3c(c2)COCO3)C(C)(C)C)c1 [RG-101016] | 308 | 1347 | 0.703 | 4200 | – | – | –
CCc1ccc(C(=O)NN(C(=O)c2cc(C)cc(Cl)c2)C(C)(C)C)cc1 [RG-101774] | 1807 | 1359 | 0.795 | 359 | – | – | –
COc1ccc(C(=O)NN(C(=O)c2ccc(F)cc2Cl)C(C)(C)C)cc1 [RG-101057] | 30 | 1008 | 0.648 | 6620 | – | – | –
COc1cccc(C(=O)NN(C(=O)c2cc(Cl)cc(Br)c2)C(C)(C)C)c1C [RG-101408] | 2445 | 1886 | 1.185 | 336 | – | – | –
COc1cc(C(=O)N(NC(=O)c2cccc(OC)c2C)C(C)(C)C)ccc1C [RG-100768] | 1738 | 1852 | 1.039 | 333 | – | – | –
COc1cccc(C(=O)NN(C(=O)c2cccnc2Cl)C(C)(C)C)c1C [RG-100127] | 49 | 1239 | 0.689 | 6700 | – | – | –
Cc1cc(C)cc(C(=O)N(NC(=O)c2cc3c(cc2C)OCO3)C(C)(C)C)c1 [RG-101088] | 6 | 1743 | 1.159 | 9950 | – | – | –
CCc1c(OC)cccc1C(=O)NN(C(=O)c1cc(OC)cc(OC)c1)C(C)(C)C [RG-100778] | 2159 | 2312 | 1.342 | 678 | – | – | –
CCc1ccc(C(=O)NN(C(=O)c2cc(C)cc(C)c2)C(C)(C)C)cc1Cl [RG-101864] | 1807 | 1464 | 0.750 | 343 | – | – | –
CCc1c(OC)cccc1C(=O)NN(C(=O)c1ccc(Cl)cc1OC)C(C)(C)C [RG-101218] | 1097 | 1223 | 0.645 | 128 | – | – | –
CCc1ccc(C(=O)NN(C(=O)c2ccccc2CC)C(C)(C)C)cc1 [RG-102592] | 7 | 1265 | 0.798 | 7770 | – | – | –
Cc1cc(C)cc(C(=O)N(NC(=O)c2ccc(CC#N)cc2)C(C)(C)C)c1 [RG-100875] | 34 | 1592 | 1.004 | 8920 | – | – | –
CCc1cccc(C(=O)NN(C(=O)c2cc(C)cc(C)c2)C(C)(C)C)c1C [RG-101691] | 2249 | 2073 | 0.969 | 250 | – | – | –

SMILES | Fold Induction, 27-63 Assay, 3.3 uM [1] | Fold Induction, 27-63 Assay, 33 uM [1] | 27-63 assay Rel Max FI [1] | EC50 [1] [nM] | Secreted Alkaline Phosphatase (percentage of GS ™-E ligand induction) Day 2 ([2]; IP 2.6 μmol ligand 3 days after electroporation, day 2 after ligand) | Secreted Alkaline Phosphatase (percentage of GS ™-E ligand induction) Day 3 ([2]; IP 2.6 μmol ligand, day 3 after ligand) | Secreted Alkaline Phosphatase (percentage of GS ™-E ligand induction) Day 11 ([2]; IP 2.6 μmol ligand, day 11 after ligand)
COc1cccc(C(=O)NN(C(=O)c2cc(C)cc(Br)c2)C(C)(C)C)c1C [RG-101353] | 3583 | 3835 | 1.168 | 266 | – | – | –
COc1cccc(C(=O)NN(C(=O)c2cc(C)ccc2Cl)C(C)(C)C)c1Cl [RG-101248] | 146 | 1033 | 0.790 | 5040 | – | – | –
COCc1c(OC)cccc1C(=O)NN(C(=O)c1cc(C)cc(C)c1)C(C)(C)C [RG-115117] | – | 221 | – | – | – | – | –
COc1ccccc1C(=O)N(NC(=O)c1ccc2c(c1C)OCOC2)C(C)(C)C [RG-100216] | 53 | 1312 | 0.685 | 6970 | – | – | –
Cc1cc(C)cc(C(=O)N(NC(=O)c2ccc3c(c2)CCCC3)C(C)(C)C)c1 [RG-101887] | 1142 | 1107 | 0.675 | 351 | – | – | –
CC(C)(C)N(NC(=O)c1c(F)cccc1F)C(=O)c1cc(Cl)cc(Cl)c1 [RG-100801] | 1341 | 1244 | 0.936 | 2080 | – | – | –
Cc1cc(C)cc(C(=O)N(NC(=O)c2ccc3c(c2Br)OCCO3)C(C)(C)C)c1 [RG-101340] | 1624 | 1549 | 0.964 | 240 | – | – | –
CC(=O)c1cccc(C(=O)NN(C(=O)c2cc(C)cc(C)c2)C(C)(C)C)c1C [RG-100814] | 2441 | 2165 | 1.157 | 1500 | – | – | –
COc1cc(Cl)ccc1C(=O)N(NC(=O)c1cccc(OC)c1C)C(C)(C)C [RG-100848] | 1181 | 1151 | 0.765 | 322 | – | – | –
CCc1c(C(=O)NN(C(=O)c2cc(C)cc(C)c2)C(C)(C)C)ccc2c1OC(C)O2 (centres unmarked) [RG-101659] | 2283 | 1896 | 1.009 | 347 | – | – | –
Cc1cc(C)cc(C(=O)N(NC(=O)c2cccc(OC(F)(F)F)c2C)C(C)(C)C)c1 [RG-101692] | 1798 | 591 | 1.008 | 788 | – | – | –
C=Cc1c(OC)cccc1C(=O)NN(C(=O)c1cc(C)cc(C)c1)C(C)(C)C [RG-102021] | – | 2951 | – | – | – | – | –
Cc1cc(C)cc(C(=O)N(NC(=O)c2cc3c(cc2Cl)OCO3)C(C)(C)C)c1 [RG-101171] | 395 | 1357 | 0.877 | 4020 | – | – | –
Cc1cc(C)cc(C(=O)N(NC(=O)c2ccc3c(c2)OC(C)O3)C(C)(C)C)c1 (centres unmarked) [RG-101511] | 1421 | 1207 | 0.762 | 714 | – | – | –
CC(C)(C)N(NC(=O)c1ccc2c(c1)OCO2)C(=O)c1ccc(F)cc1Cl [RG-101048] | 19 | 1453 | 0.708 | 8420 | – | – | –
COc1cc(C(=O)NN(C(=O)c2cc(C)cc(C)c2)C(C)(C)C)ccc1C [RG-101585] | 154 | 1495 | 0.893 | 5060 | – | – | –
CCc1ccc(C(=O)NN(C(=O)c2cc(C)c(C)c(Cl)c2)C(C)(C)C)cc1 [RG-101863] | 1705 | 636 | 1.043 | 1000 | – | – | –

Reference: US9102648B1, “Bioavailable diacylhydrazine ligands for modulating the expression of exogenous genes via an ecdysone receptor complex” (Intrexon Corporation, priority 2003, dated 2015)
